A short description of series [1]: DLS of peptide-loaded poloxamer micelles. The format is physicochemical. The conditions noted are these: lipopeptide-loaded Plur123 micelles, DLS 37 °C. Here is the method:
Peptide-loaded poloxamer micelles were prepared by solubilizing the peptides in 50 g/L poloxamer solutions in PBS (pH 7.4). The peptides were previously dissolved in DMSO, and then the poloxamer solutions were added. The final DMSO content was 5%. The solutions were left shaking overnight to allow enough time for solubilization. Before the measurements, PBS was added to the solutions to reach 5 g/L poloxamer concentration. In the biological experiments, these samples were diluted twice with the corresponding culture media.
The average hydrodynamic diameter (dH) and polydispersity of the peptide-loaded micelles were determined using a dynamic light scattering (DLS) instrument (NanoLab 3D^TM, LS Instruments, Fribourg, Switzerland) based on three-dimensional (3D) modulation technology. A fibre-coupled diode laser operating at 638 nm served as the light source. The measurements were performed at a detection angle of 90° and at temperatures of 37.00 ± 0.02 °C. The recorded autocorrelation functions were analyzed using the second order cumulant expansion method. Before the measurements, the samples were filtered with a 0.2 μm syringe filter.

A short description of series [2]: Encapsulation efficacy: HPLC of lipopeptide passing 0.2 μm filter. The series is classed as physicochemical. The conditions noted are these: poloxamer 5 g/L in PBS, peptide pre-dissolved in DMSO (pL1 200 μM, pCM15 100 μM, pATIPC 10 μM); centrifuged through 0.2 μm nylon filter, HPLC AUC vs fully solubilized lipopeptide. Here is the method:
Section S3 in the Supplementary data contains the detailed characterization of the mixed micelles (Fig. S7A). First, calibration curves were plotted for each lipopeptide in a medium in which the compounds were perfectly soluble, namely in eluent B (0.1% TFA in acetonitrile:water (4:1, V/V) solution) (Figs. S7B−D). Next, poloxamer-lipopeptide constructs were prepared as follows: the lipopeptide samples were pre-dissolved in DMSO and then mixed with the poloxamer/PBS solutions, left shaking overnight. In the next day, the concentration was adjusted by adding PBS to the solutions. The composition of the samples was as follows: poloxamer 5 g/L and peptides (pL1 200 μM, pCM15 100 μM, and pATIPC 10 μM). Then, lipopeptide/poloxamer constructs were centrifuged using a 0.2 μm nylon filter, diluted twice with eluent B, and injected to the HPLC column. […] The highest encapsulation efficacy was measured for the shortest lipopeptide pL1, and all three poloxamers formed mixed micelles with the lipopeptides in more than 80%. It was assumed that the filtered part of the samples contains the lipopeptide aggregates with particle size of […].
Fig. S7. Formulation of Lipopeptides with Poloxamers. Overview of the analytical characterization of the samples (A). Calibration curves for the fully solubilized lipopeptides with the linear regression equation (B-D). […]

A short description of series [3]: Antigen release, dialysis membrane assay. The format is physicochemical. The conditions noted are these: pATIPC-Plur123 mixed micelles (80 µM peptide, Plur123 40 g/L in PBS), dialysis 10K MWCO, 37 °C, after 4 h, HPLC AUC vs 0 h. Here is the method: Lipopeptide release was assessed by incubating the mixed micelles in PBS at 37 °C for 6 hours, using the dialysis membrane method. Briefly, the pATIPC lipopeptide (80 µM) was dissolved in Plur123 (40 g/L, in PBS), mixed, then centrifuged using a 0.2 µm Nylon filter to remove the aggregated peptide particles. The formation of the mixed micelles was checked by DLS and the peptide content was measured by HPLC, as described above. Mixed micelle solution was then loaded into a Slide-A-Lyzer Mini Dialysis Device (10K MWCO) (Thermo Fisher Scientific, Waltham, MA, USA) and incubated at 37 °C using PBS as release medium. At 0, 1, 4 and 6 h, the micelles within the dialysis membrane were taken for measurements of particle size and distribution by DLS.

For series [4] the following is noted: cited from earlier work.
The conditions of series [5]: cited from earlier work. The text has this: Supplement mmc1.docx, table 1: Table S1. Lipopeptide-based drugs, with their characteristics, disease target, and the year of approval. | column: Plasma protein binding
This is another data set of the same source.

For another series, the system named is S. aureus. Set-up: method as in 2 sources, one per row (each row's own in cited_ref): ref 69 = [69]; PMID 34822969; doi:10.1016/j.micpath.2021.105301; 69 Roshanak S. Shahidi F. Tabatabaei Yazdi F. Buforin I an alternative to conventional antibiotics: Evaluation of the antimicrobial properties, stability, and safety Microb. Pathog. 161 2021 105301 10 ||| ref 53,70 = [53]; PMID 10890923; doi:10.1073/pnas.150518097; 53 Park C.B. Yi K.S. Matsuzaki K. Structure-activity analysis of buforin II, a histone H2A-derived antimicrobial peptide: The proline hinge is responsible for the cell-penetrating ability of buforin I || [70]; 70 Lee H. Yang S. Dimerization of cell-penetrating buforin II enhances antimicrobial properties J. Anal. Sci. Technol. 12 2021 9. The conditions noted are these: cited from earlier work. From the text: (§1) However, since this peptide contains only four amino aci ...

A further series concerns MRSA strain. Set-up: method as in PMID 34822969. The conditions noted are these: cited from earlier work.
Text: as §1

The subject of series [6] is HT-29 colorectal adenocarcinoma cells. As to the kind of experiment: In vitro antitumor effect, AlamarBlue. The format is cell-based, human. The conditions noted are these: 5 μM pCM15 lipopeptide, 24 h treatment, vs medium-treated control, mean ± SD, n = 4. Here is the method:
All data are presented as mean ± SD (n = 4). Statistical analysis was performed using one-way analysis of variance (ANOVA), followed by Tukey's post-hoc test. Statistical significances were denoted as ^∗P < 0.05, ^∗∗P < 0.01, and ^∗∗∗P < 0.001.
A general note: The colour change of resazurin is a common sign of viable cells or microbes.

Like-named read-outs stand apart in the source and are kept apart here. Peptide text beside a SMILES is read from it. * marks the point of attachment. Palmitoyl = CCCCCCCCCCCCCCCC(=O)*

As for “pal-KLVANNTRLTKPK- (FFGINTIPIAC)-GGLIDIAPHQISSV [pATIPC]”, the “Increase in particle size after one week of storage as a solution” value in series [1] was found to be 10 nm. Besides, in series [2], the “Encapsulation (lipopeptide in form <0.2 μm, in mixed micelles)” value is recorded as “around 60%”. In addition, the “pATIPC antigen remaining inside the micelles” value in series [3] is recorded as “more than 50%”.

Colistin: in series [4] (in vivo), the Half-life is on record as 5 h and the Route of elimination entry is on record as “Mainly urinary excretion”. Besides, the Plasma protein binding in series [5] is 50%.

As for Rezafungin, in series [4] (approved drug characteristics), the Half-life is on record as more than 130 h and the Route of elimination result is “Mainly through fecal excretion”. For the same compound, the Plasma protein binding in series [5] (approved drug characteristics) is listed as 87-99%.

With Dalbavancin, the Route of elimination entry in series [4] (approved drug characteristics) was “Mainly through fecal excretion”. In addition, the Plasma protein binding in series [5] (approved drug characteristics) is reported as 93%.

For the compound Polymyxin B, in series [4] (approved drug characteristics), the Half-life was 6 to 11.5 h and the Route of elimination result is “Mainly urinary excretion”.

As to Daptomycin, in series [4] (approved drug characteristics), the Route of elimination result is “Urinary excretion”. Also, the Plasma protein binding in series [5] (approved drug characteristics) is 90-94%.

With “AGRGKQGGKVRAKAKTRSSRAGLQFPVGRVHRLLRKGNY [Buforin I]”, the “Concentration with activity against S. aureus” value in the series on S. aureus was 10 µg/mL. Further, the “MIC for the MRSA strain” value in the series on MRSA strain was 14 µg/mL.

With Micafungin, in series [4] (approved drug characteristics), the Half-life is 14 to 17 h and the Route of elimination result is recorded as “Mainly through fecal excretion”. In series [5] (approved drug characteristics), the Plasma protein binding is more than 99%.

As for Insulin detemir, in series [4] (in vivo), the Half-life is 5 to 7 h and the Route of elimination entry is listed as “Mainly urinary excretion”. The Plasma protein binding in series [5] is recorded as 98%.

Regarding Caspofungin, in series [4] (approved drug characteristics), the Half-life is 9 to 11 h; the Route of elimination result was “Urinary and fecal excretion”. The Plasma protein binding in series [5] (approved drug characteristics) is 97%.

Insulin degludec: in series [4] (approved drug characteristics), the Half-life is 25 h and the Route of elimination result is listed as “Mainly urinary excretion”. Also, in series [5] (approved drug characteristics), the Plasma protein binding is on record as more than 99%.

For `CCCCCCCCCCCCCCCC(=O)N[C@@H](CCCCN)C(=O)N[C@@H](Cc1c[nH]c2ccccc12)C(=O)N[C@@H](CCCCN)C(=O)N[C@@H](CC(C)C)C(=O)N[C@@H](Cc1ccccc1)C(=O)N[C@@H](CCCCN)C(=O)N[C@@H](CCCCN)C(=O)N[C@H](C(=O)NCC(=O)N[C@@H](C)C(=O)N[C@H](C(=O)N[C@@H](CC(C)C)C(=O)N[C@@H](CCCCN)C(=O)N[C@H](C(=O)N[C@@H](CC(C)C)C(N)=O)C(C)C)C(C)C)[C@@H](C)CC` [pCM15] (Palmitoyl-KWKLFKKIGAVLKVL-NH2), in series [6], the Cytotoxicity is given as 35.0% ± 4.8.

Source of the values: paper PMC11774939, “Optimizing lipopeptide bioactivity: The impact of non-ionic surfactant dressing” (Journal of Pharmaceutical Analysis, 2024).
